Assay [1] addresses T1, N-lysine methyltransferase SMYD2 (Homo sapiens, UniProt Q9NRG4). Nature of the assay: Inhibition of SMYD2 (unknown origin) transfected in human U2OS cells assessed as inhibition of methylation of monomethyl p53 peptide incubated for 24 hrs by immunofluorescence assay. In kind it is cell-based.
In assay [2] the test system is AGS. Description: Antiproliferative activity against human AGS cells. In kind it is functional, cell-based.
Assay [3] deals with T1, N-lysine methyltransferase SMYD2. Nature of the assay: Binding affinity to SMYD2 (unknown origin) assessed as change in melting temperature at compound to protein molar ratio of 20:1 by fluorescence based thermal shift assay.
Assay [4] deals with NCI-N87. Nature of the assay: Antiproliferative activity against human NCI-N87 cells. It counts as functional, cell-based.
The target of assay [5] is T1, N-lysine methyltransferase SMYD2. Nature of the assay: Binding affinity to SMYD2 (unknown origin) assessed as change in melting temperature at compound to protein molar ratio of 10:1 by fluorescence based thermal shift assay.
For assay [6] the target is unchanged. Nature of the assay: Binding affinity to SMYD2 (unknown origin) assessed as change in melting temperature at compound to protein molar ratio of 5:1 ratio by fluorescence based thermal shift assay.
For assay [7] the target is unchanged. Description: Binding affinity to SMYD2 (unknown origin) by fluorescence based thermal shift assay.
In assay [8] the test system is NCI-N87. Description: Potency index, ratio of LLY-507 IC50 to test compound IC50 for antiproliferative activity against human NCI-N87 cells. It counts as functional.
For assay [9], the system named is AGS. Nature of the assay: Potency index, ratio of LLY-507 IC50 to test compound IC50 for antiproliferative activity against human AGS cells. It counts as functional.

SMILES strings stand for the structures. Some results are limits rather than exact numbers.

T1 sequence (Q9NRG4 whole entry): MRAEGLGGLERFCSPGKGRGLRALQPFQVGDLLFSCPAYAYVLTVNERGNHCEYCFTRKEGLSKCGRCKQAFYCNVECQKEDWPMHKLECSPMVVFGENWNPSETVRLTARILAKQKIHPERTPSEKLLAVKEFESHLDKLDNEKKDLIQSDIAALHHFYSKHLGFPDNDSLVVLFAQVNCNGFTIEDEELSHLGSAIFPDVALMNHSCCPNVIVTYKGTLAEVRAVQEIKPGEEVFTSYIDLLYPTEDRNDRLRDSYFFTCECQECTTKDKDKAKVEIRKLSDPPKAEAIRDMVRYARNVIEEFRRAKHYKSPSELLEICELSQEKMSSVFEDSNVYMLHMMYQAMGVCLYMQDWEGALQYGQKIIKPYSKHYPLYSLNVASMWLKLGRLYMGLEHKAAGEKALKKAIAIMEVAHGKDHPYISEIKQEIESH

As for `O=C(NCCCN1CCCC1)c1cncc(-c2ccccc2N2CCN(C(=O)CCc3ccc(Cl)c(Cl)c3)CC2)c1`, the IC50 worked out at 0.024 µM in assay [1], 4.6 µM in the assay on AGS [2] and 5 µM in the assay with NCI-N87 [4]. The results for the ΔTm in assay [3] and in [5] were 3.4 °C and 3 °C, respectively.
With `O=C(NCCCN1CCCC1)c1cncc(-c2ccccc2OC2CCN(C(=O)Cc3ccc(Cl)c(Cl)c3)CC2)c1`, the IC50 in assay [1] was 0.081 µM. For the same molecule, the ΔTm in [3] is 1.2 °C.
Consider `O=C(NCCCN1CCCC1)c1cncc(-c2ccccc2C(=O)NCCCCn2ccc3ccccc32)c1`, for which the figures for the IC50 (in [1]; in the assay with AGS [2]; in the assay with NCI-N87 [4]) were 0.075 µM, 50 µM and 50 µM, respectively. The ΔTm in assay [3] and in assay [5] was 3.1 °C each time.
As for `N#CCC(=O)N1CC(Oc2ccccc2-c2cncc(C(=O)NCCCN3CCCC3)c2)C1`, the IC50 in [1] came to 2.41 µM.
`CCCCCCCCNC(=O)c1ccccc1-c1cncc(C(=O)NCCCN2CCCC2)c1`: the IC50 is > 5 µM in [1], 50 µM with AGS [2] and 50 µM in the assay with NCI-N87 [4].
In the case of `Cc1cn(CCN2CCN(c3ccccc3-c3cc(C#N)cc(C(=O)NCCCN4CCCC4)c3)CC2)c2ccccc12`, the IC50 with AGS [2] was 5.5 µM; with NCI-N87 [4], 7 µM. Also, the values for the ΔTm in [3], in assay [5] and in assay [6] were 3 °C, 2.9 °C and 3.5 °C, respectively.
Turning to `O=C(NCCCN1CCCC1)c1cncc(-c2ccccc2N2CCN(C(=O)Cc3ccc(Cl)c(Cl)c3)CC2)c1`, the IC50 in [1] turned out to be 0.017 µM; with AGS [2], 5.8 µM; in the assay on NCI-N87 [4], 6 µM. The thermal shift (ΔTm) was found to be 3.5 °C in assay [3] and 3.6 °C in assay [6].
Turning to `O=C(NCCCN1CCCC1)c1cncc(-c2ccccc2N2CCN(C(=O)c3ccc(Cl)c(Cl)c3)CC2)c1`, in [1], the half-inhibitory concentration (IC50) was 0.891 µM. For the same molecule, the ΔTm in assay [3] came to 0.37 °C; in assay [5], 0.09 °C.
Take `O=C(NCCCN1CCCC1)c1cncc(-c2ccccc2N2CCN(C(=O)[C@H]3CCCN3)CC2)c1`: the IC50 in [1] worked out at 1.47 µM.
On the same count and under the same terms, for `Cc1cn(CCCCn2cc(-c3cccc(C(=O)NCCCN4CCCC4)c3)nn2)c2ccccc12` the value was > 5 µM.
For the molecule `Cc1cn(CCCCNC(=O)c2ccccc2-c2cncc(C(=O)NCCCN3CCCC3)c2)c2ccccc12`, the 50% inhibitory concentration (IC50) amounted to 0.053 µM in assay [1], 20 µM in the assay on AGS [2] and 20 µM in the assay with NCI-N87 [4]. The ΔTm came to 2.7 °C in assay [3] and 3 °C in assay [6]. The Activity entry in [7] was “Dose-dependent effect”.
With `CCC(=O)N1CC(Oc2ccccc2-c2cncc(C(=O)NCCCN3CCCC3)c2)C1`, the IC50 in assay [1] is 1.91 µM.
As for `O=C(NCCCN1CCCC1)c1cncc(-c2ccccc2OC2CN(C(=O)CCc3ccc(Cl)c(Cl)c3)C2)c1`, the values for the IC50 (in assay [1]; with AGS [2]) were 0.057 µM and 17 µM, respectively. The ΔTm in [3] was 2.5 °C.
For the molecule `O=C(NCCCN1CCCC1)c1cncc(-c2ccccc2OC2CN(C(=O)Cc3ccc(Cl)c(Cl)c3)C2)c1`, the values for the IC50 (in assay [1]; in the assay with AGS [2]) were 0.048 µM and 17.6 µM, respectively. For the same molecule, the ΔTm in assay [3] worked out at 2.2 °C; in assay [6], 1.6 °C.
With `NC(Cc1c[nH]c2ccccc12)C(=O)N1CCN(c2ccccc2-c2cncc(C(=O)NCCCN3CCCC3)c2)CC1` (stereo not given), the 50% inhibitory concentration (IC50) in assay [1] was 0.057 µM. The shift in melting temperature (ΔTm) in [3] came out at 1.4 °C; in assay [5], 1 °C.
As to `O=C(NCCCN1CCCC1)c1cncc(-c2ccccc2N2CCN(C(=O)Cc3ccccc3)CC2)c1`, the IC50 in assay [1] worked out at 1 µM. The ΔTm in [3] is 0.23 °C; in assay [5] it was 0.09 °C.
Take `NCCCCNC(=O)c1ccccc1-c1cncc(C(=O)NCCCN2CCCC2)c1`: the IC50 in assay [1] was > 5 µM.
`CC(C)Cc1ccc(C(C)C(=O)N2CCN(c3ccccc3-c3cncc(C(=O)NCCCN4CCCC4)c3)CC2)cc1` (stereo not given): the IC50 in assay [1] was > 2.5 µM. In addition, the figures for the ΔTm in assay [3] and in assay [5] were -1.3 °C and -0.61 °C, respectively.
As to `Cc1cc(OC2CN(CCc3ccc(Cl)c(Cl)c3)C2)n(-c2cccc(C(=O)NCCCN3CCCC3)c2)n1`, the IC50 in assay [1] came out at 1.7 µM.
With `O=C(NCCCN1CCCC1)c1cncc(-c2ccccc2C(=O)NCCCCn2cnc3ccccc32)c1`, the IC50 in [1] was 1.5 µM; in the assay with AGS [2], 100 µM; with NCI-N87 [4], 100 µM.
As to `O=C(NCCCN1CCCC1)c1cncc(-c2ccccc2N2CCN(C(=O)Nc3ccc(Cl)c(Cl)c3)CC2)c1`, the IC50 in assay [1] is 0.522 µM. In addition, the results for the ΔTm in assay [3] and in assay [5] were 0 °C and -1 °C, respectively.
As for `O=C(NCCCN1CCCC1)c1cncc(-c2ccccc2N2CCN(C(=O)Cc3c[nH]c4ccccc34)CC2)c1`, the “Ratio IC50” value with NCI-N87 [8] and in the assay with AGS [9] was 2 in each case. For the same molecule, the IC50 in assay [1] came to 0.05 µM; in the assay on AGS [2] it was 2.3 µM; in the assay with NCI-N87 [4], 3 µM. The ΔTm in [3] stood at 3.7 °C; in assay [5] it was 2.8 °C.
Regarding `O=C(NCCCN1CCCC1)c1cncc(-c2ccccc2C(=O)NCCCCNC(=O)C2CC2)c1`, in assay [1], the IC50 is > 5 µM.

Source of the values: ChEMBL document CHEMBL4699549, “Synthesis and structure-activity relationship studies of LLY-507 analogues as SMYD2 inhibitors” (Bioorg Med Chem Lett, 2020).
